Experimental data reported in article PMC7000199, “Indirubin derivatives are potent and selective anti-Trypanosoma cruzi agents” (Virulence, 2018).
Where two headings read alike, the source gives them in different places. Marks after values point to notes of the source that are not given here.

What was measured:
[1] = system: T. cruzi trypomastigotes (Y strain); experiment: Cytotoxicity for trypomastigotes (viable parasite count, Neubauer chamber); format: cell-based, Trypanosoma cruzi; conditions: for activity at the screening threshold (in words): threshold 10 μΜ
Description: The trypanocidal activity of the 69 indirubins was initially evaluated against trypomastigotes (Y strain T. cruzi) through the determination of EC50 values. First, the collection of 69 indirubins (Table S1) was screened against the trypomastigote form of T. cruzi parasites at 10 μΜ and 1 μΜ.
The T. cruzi Y strain (DTU II) was used in this study. […] For in vivo analysis, bloodstream trypomastigotes used were obtained from BALB/c mice previously infected intraperitoneally with 10,000 Y trypomastigotes, and then bled after 8–12 days when they reached the peak of parasitaemia.
Trypomastigotes (4x10^5 cells/well) were seeded into 96-well plates and the indirubins were added at eight concentrations ranging from 0.08 to 10 µM, in triplicate. Plates were incubated for 24 h at 37 °C and 5% of CO2. Aliquots of each well were collected and the number of viable parasites, based on parasite integrity and motility, was assessed in a Neubauer chamber and compared to untreated cultures. Three independent experiments were performed.
(§1) The selectivity index (SI) was defined as the ratio of CC50 by EC50 (trypomastigotes). The one-way ANOVA followed by Bonferroni’s multiple comparison test was used to determine the statistical significance of the group comparisons in the in vitro infection and in vivo studies. Results were considered statistically significant when P < 0.05. All analyzes were performed using Graph Pad Prism version 5.01

[2] = system: T. cruzi intracellular amastigotes; experiment: In vitro infection assay (infected peritoneal macrophages); format: cell-based, Trypanosoma cruzi; conditions: amastigotes in infected macrophages treated for 6 h, mean ± SD
Method: Peritoneal exudate macrophages were obtained by washing, with cold PBS, the peritoneal cavity of BALB/c mice 4–5 days after injection of 3% thioglycolate (Sigma-Aldrich) in saline (1.5 mL per mice). Then, cells were plated at a cell density of 2 × 10^5 cells/well in 24-well plates with sterile coverslips on the bottom in RPMI supplemented with 10% FBS and incubated for 24 h at 37° C and 5% CO2. Cells were then infected with trypomastigotes at a ratio of 10 parasites per macrophage for 2 h. Free trypomastigotes were removed by successive washes using saline solution. Cultures were incubated in complete medium alone or with the compounds under investigation in different concentrations for 6 h. The medium was replaced with fresh medium and the plate was incubated for 3 days. Cells were fixed in absolute alcohol and the percentage of infected macrophages and the mean number of amastigotes/100 macrophages was determined by manual counting after hematoxylin and eosin staining in an optical microscope (Olympus). The percentage of infected macrophages and the relative number of amastigotes per macrophage was determined by counting 100 cells per slide.
as §1

T. cruzi trypomastigotes = experiment: Ultrastructural studies (TEM and SEM) of treated trypomastigotes; format: cell-based, Trypanosoma cruzi; conditions: 24 h; for morphological alterations by scanning electron microscopy: EC50 and 2 x EC50 concentration; for ultrastructural alterations by transmission electron microscopy: EC50 concentration
Method: Parasites were then fixed with 2% formaldehyde and 2.5% glutaraldehyde in sodium cacodylate buffer (0.1 M, pH 7.2) for 1 h at room temperature. After fixation, parasites were washed 3 times with sodium cacodylate buffer (0.1 M, pH 7.2), and post-fixed with a 1.0 % solution of osmium tetroxide containing 0.8% potassium ferrocyanide (Sigma-Aldrich; Catalog number: P3289) for 1 h. Cells were subsequently dehydrated in increasing concentrations of acetone (30, 50, 70, 90 and 100%) for 10 min at each step and embedded in polybed resin (PolyScience; Catalog number: 00552–500). Ultrathin sections on copper grids were contrasted with uranyl acetate and lead citrate and observed under a ZEISS 109 transmission electron microscope. For scanning electron microscopy, trypomastigotes treated and fixed in the same conditions were washed in 0.1 M cacodylate buffer, and allowed to adhere in coverslips pre-coated with poly-L-lysine (Sigma-Aldrich; Catalog number: P4707). Cells were then post-fixed with a solution of osmium tetroxide containing 0.8% of potassium ferrocyanide for 30 min and dehydrated in crescent concentrations of ethanol (30, 50, 70, 90 and 100%). The samples were dried until the critical point, metallized with gold and analyzed in a JEOL JSM-6390LV scanning electron microscope. Two independent experiments were performed.

[3] = system: Y Trypanosoma cruzi strain; experiment: Infection in mice (acute Chagas disease model); format: in vivo, BALB/c mice; conditions: for Mortality: dead/total, monitored for 30 days after treatment; for % Blood parasitemia reduction in mice at 12 dpi: daily for 5 days from day 5 of infection, versus vehicle group
Method: Female BALB/c mice (18–22 g) were infected with bloodstream trypomastigotes by intraperitoneal inoculation of 10^4 parasites in 100 µL of saline solution and then mice were randomly divided in groups (six animals per group). Before starting the treatment on the fifth day post infection, the infection was confirmed in all animals where on average 0.4 × 10^6 parasites per ml of blood were found. Thus, after day 5 of infection, treatment with 20 mg/kg weight of indirubins 10, 11, 17 and 32 were given orally for five consecutive days. For the control group, benznidazole was given orally at dose of 100 mg/kg weight. Saline containing 20% DMSO was used as a vehicle and administrated on untreated and infected group. Infection was monitored daily by counting the number of motile parasites in 5 µL of fresh blood sample drawn from the lateral tail veins, as recommended by standard protocol. Survival of mice was monitored for 30 days after treatment.

[4] = mouse, in vivo, 20 mg/kg
Method: (§3) Thus, the highest dose was selected (20 mg/kg) and administrated, as described in material and methods section.
(§4) The analysis was performed in 6 mice per group.

[5] = In vivo toxicity: mortality, behaviour, serum and urine renal and hepatic markers; conditions: mice, 10 or 20 mg/Kg for 5 consecutive days, up to 3 months post treatment
Method: as §3, §4

[6] = Cytotoxicity to mammalian cells (Alamar Blue); format: cell-based, mouse; conditions: mouse, J774.1 macrophage cells; J774.1 cell viability, 72 h post-treatment
Method: (§2) Mouse macrophages (J774.1 cell line) were seeded into 96-well plates at a cell number 1 × 10^4 cells/well in DMEM medium supplemented with 10 % of FBS and incubated for 24 h at 37°C and 5% CO2. Samples were then added at eight concentrations (ranging from 0.078 to 10 µM) in triplicate, and incubated for 72 h, followed by the addition of 20 µL/well of Alamar Blue (Invitrogen; Catalog number: DAL1025). Colorimetric readings were performed 24 h later at 570 and 600 nm. CC50 values were calculated using data-points gathered from three independent experiments. Benznidazole was tested in concentrations ranging from 0.78 to 100 µM.
as §1

[7] = system: murine macrophages J774.1; experiment: Cytotoxicity to mammalian cells (Alamar Blue); format: cell-based, mouse
Method: as §2, §1

[8] = Table S1, 69 indirubin analogues, read-out: EC50 in T.cruzi trypomastigotes
[9] = trypomastigotes, 24 h post-treatment, mean ± SD of three experiments, read-out: EC50 Try.
[10] = 20 mg/Kg orally, daily for 5 days
[11] = 100 mg/Kg orally, daily for 5 days

O=C1Nc2cc(Br)c([N+](=O)[O-])cc2C1=C1Nc2ccccc2C1=NO [Compound 51]
EC50 [1, 8]: > 10 µM

3ʹpiperazine-6-BIO [Compound 11]
EC50 [1, 9]: 0.25 µM
EC50 [2]: 0.22 µM
morphological alterations by scanning electron microscopy (T. cruzi trypomastigotes): extensive loss of plasma membrane integrity
morphological alterations by scanning electron microscopy (T. cruzi trypomastigotes; listed as compound 11): alterations in cell shape and loss of plasma membrane integrity
ultrastructural alterations by transmission electron microscopy (T. cruzi trypomastigotes): appearance of myelin figures
ultrastructural alterations by transmission electron microscopy (T. cruzi trypomastigotes; listed as compound 11): DNA degradation with pyknotic nuclei
effect on mortality (in words) [3, 10]: protective effect
Mortality [3, 10]: 1/6
Blood Serum Alanine Aminotransferase (ALT) [4]: 29±2 U/I
Blood Serum Aspartate Aminotransferase (AST) [4]: 135.5±10.5 U/I
Blood Serum C-Reactive Protein (CRP) [4]: <0.02 mg/dL
Blood Serum Creatinine [4]: 0.385 ± 0.015 mg/dL
Urine (24h) Creatinine [4]: 63±8
Urine (24h) Microalbumin (Urine Albumin) [4]: 9 ± 1 mg/L
Urine (24h) Urine albumin to creatinine ratio (ACR) [4]: 0.142
signs of toxicity or mortality (in words) [5]: no signs of toxicity

O=C1Nc2ccccc2/C1=C1/Nc2ccccc2C1=O [Compound 66]
EC50 [1, 8]: > 10 µM

O=C(Cn1ccnc1[N+](=O)[O-])NCc1ccccc1 [Benznidazole, reference compound]
EC50 ([1]; Trypanosoma cruzi, 24 h, trypomastigotes, 24 h post-treatment, mean ± SD of three experiments, read-out: EC50 Try.): 11.3 µM
CC50 at 72 h [6]: > 100 µM
EC50 ([2]; Trypanosoma cruzi, Macrophage): 13.4 µM
survival rate [3, 11]: 100%
% Blood parasitemia reduction in mice at 12 dpi ([3]; 100 mg/Kg orally): > 99* %
% Blood parasitemia reduction in mice at 12 dpi ([3]; 100 mg/Kg orally, listed as benznidazole): > 99%
Mortality [3, 11]: 0/6*

Nc1cc2c(cc1Br)NC(=O)C2=C1Nc2ccccc2C1=NO [Compound 52]
EC50 [1, 8]: > 10 µM

CCOP(=O)(OCC)ON=C1C(=C2C(=O)Nc3cc(Br)ccc32)Nc2ccccc21 [Compound 56]
EC50 [1, 8]: > 10 µM

O=C1Nc2cc(Br)ccc2C1=C1Nc2ccccc2C1=O [Compound 55]
EC50 [1, 8]: > 10 µM

O=C1Nc2cc(N3CCNCC3)c([N+](=O)[O-])cc2C1=C1Nc2ccccc2C1=NO [Compound 45]
EC50 [1, 8]: > 10 µM

Nc1ccc2c(c1)C(=C1Nc3ccccc3C1=NO)C(=O)N2 [Compound 62]
EC50 [1, 8]: > 10 µM

Cc1cc2c(cc1Br)NC(=O)C2=C1Nc2ccccc2C1=O [Compound 57]
EC50 [1, 8]: > 10 µM

CN1C(=O)C(=C2Nc3ccccc3C2=NO)c2ccc(Br)cc21 [Compound 58]
EC50 [1, 8]: > 10 µM

O=C1Nc2cc(Cl)ccc2C1=C1Nc2ccccc2C1=NO [Compound 64]
EC50 [1, 8]: > 10 µM

O=C1Nc2c(cccc2C(F)(F)F)C1=C1Nc2ccccc2C1=O [Compound 36]
EC50 [1, 8]: > 10 µM

O=C1Nc2ccc(Br)cc2C1=C1Nc2ccccc2C1=NO [Compound 61]
EC50 [1, 8]: > 10 µM

O=C1Nc2ccc(Br)cc2C1=C1Nc2ccccc2C1=O [Compound 60]
EC50 [1, 8]: > 10 µM

O=C1Nc2cc(I)ccc2C1=C1Nc2ccccc2C1=NO [Compound 65]
EC50 [1, 8]: > 10 µM

Nc1cc2c(cc1Br)NC(=O)C2=C1Nc2ccccc2C1=O [Compound 53]
EC50 [1, 8]: > 10 µM

O=C1Nc2c(cccc2C(F)(F)F)C1=C1Nc2ccccc2C1=NO [Compound 27]
EC50 [1, 8]: > 10 µM

O=C1Nc2cc(Br)ccc2C1=C1Nc2ccccc2C1=NO [Compound 6BIO, 3'oxime-6-bromoindirubin]
EC50 [1, 8]: > 10 µM
activity at the screening threshold (in words) ([1]; trypomastigotes): did not exhibit any activity

CON=C1C(=C2C(=O)Nc3ccccc32)Nc2ccccc21 [Compound 67]
EC50 [1, 8]: > 10 µM

O=C1Nc2cc(Br)c([N+](=O)[O-])cc2C1=C1Nc2ccccc2C1=O [Compound 54]
EC50 [1, 8]: > 10 µM

O=C1Nc2cc(F)ccc2C1=C1Nc2ccccc2C1=NO [Compound 63]
EC50 [1, 8]: > 10 µM

CC(=O)ON=C1C(=C2C(=O)N(C)c3cc(Br)ccc32)Nc2ccccc21 [Compound 59]
EC50 [1, 8]: > 10 µM

CC(=O)O/N=C1/C(=C2/C(=O)Nc3cc(Br)ccc32)Nc2ccccc21 [Compound 50]
EC50 [1, 8]: > 10 µM

Cc1cc2c(cc1Br)NC(=O)C2=C1Nc2ccccc2C1=NO [Compound 5-Me-6-BIO, 6-br-5methylindirubin-3ʹoxime]
EC50 [1, 8]: > 10 µM
activity at the screening threshold (in words) ([1]; trypomastigotes): did not exhibit any activity

O=C1Nc2c(Br)cccc2C1=C1Nc2ccccc2C1=NO [Compound 21]
EC50 [1, 8]: > 10 µM

O=C1Nc2c(Br)cccc2C1=C1Nc2ccccc2C1=O [Compound 20]
EC50 [1, 8]: > 10 µM

3ʹpyrrolidine-6BIO [Compound 17]
EC50 [1, 9]: 0.44 µM
cytotoxicity against murine macrophages J774.1 (in words) [7]: lower cytotoxicity
CC50 ([7]; J774.1 cell viability, 72 h post-treatment): 10 µM
EC50 [2]: 0.9 µM
morphological alterations by scanning electron microscopy (T. cruzi trypomastigotes): extensive loss of plasma membrane integrity
ultrastructural alterations by transmission electron microscopy (T. cruzi trypomastigotes): appearance of myelin figures
ultrastructural alterations by transmission electron microscopy (T. cruzi trypomastigotes; listed as compound 17): DNA degradation with pyknotic nuclei
effect on mortality (in words) [3, 10]: protective effect
Mortality [3, 10]: 1/6*
